Like-named read-outs stand apart in the source and are kept apart here.

As a reminder, the IC50 is the concentration that gives 50% inhibition.

In assay [1] the target is mushroom tyrosinase (mTYR). Kind of assay: Mushroom tyrosinase inhibition assay. The format is biochemical, Agaricus bisporus. Also on record: Tyrosinase inhibition (%): dose or concentration left out as unconfirmed. The note with it: for IC50: mushroom tyrosinase; for IC50 / Tyrosinase inhibition (%): L-tyrosine substrate; for Tyrosinase inhibition (%): […] μM of compound. As to the method: The tyrosinase inhibitory activity assays on the synthesized DHIT derivatives 1a – 1 k was performed using mushroom tyrosinase (mTYR), as previously described with minor modification. […] The optical densities of dopachrome produced during incubation were measured using a microplate reader (VersaMax™, Molecular Devices, Sunnyvale, CA, USA) at 492 nm. […] All experiments were conducted in triplicate. To calculate the tyrosinase inhibitory activities, the following formula was used: % inhibition = [(1− (A/B)) × 100], where A is test sample optical density and B is the optical density of the non-treated control.
IC50 values were calculated by plotting linear regression curves of percentage inhibitions versus derivative concentrations. The negative control was obtained by adding dimethyl sulfoxide (DMSO) instead of a DHIT derivative.

Another assay has as its target mushroom tyrosinase. The arrangement: method as in PMID 29521165. The note with it: cited from earlier work.

With `COc1ccc(/C=c2\sc3n(c2=O)CCN=3)cc1` [Compound 1 g, (Z)-2-(4-Methoxybenzylidene)-5,6-dihydroimidazo[2,1-b]thiazol-3(2H)-one], in assay [1], the IC50 is greater than 100 µM.
Regarding `[H]/N=C1/NC(=O)C(=Cc2ccc(OC)c(O)c2)S1` [MHY773, (Z)-5-(3-hydroxy-4-methoxybenzylidene)-2-iminothiazolidin-4-one], the IC50 on mushroom tyrosinase (diphenolase) is 8.06 µM; at mushroom tyrosinase (monophenolase), 2.87 µM.
`O=c1/c(=C/c2ccc(O)cc2)sc2n1CCN=2` [Compound 1a, (Z)-2-(4-Hydroxybenzylidene)-5,6-dihydroimidazo[2,1-b]thiazol-3(2H)-one]: in assay [1], the “mushroom tyrosinase inhibition compared with kojic acid” value was “inhibited mTYR more than kojic acid” and the IC50 turned out to be 36.1 ± 3.9 µM. In addition, the “fold stronger tyrosinase inhibitor than kojic acid” value in assay [1] (ratio of IC50 values) is reported as 2.3 fold.
As for `COc1ccc(/C=c2\sc3n(c2=O)CCN=3)c(OC)c1` [Compound 1 h, (Z)-2-(2,4-Dimethoxybenzylidene)-5,6-dihydroimidazo[2,1-b]thiazol-3(2H)-one], in assay [1], the IC50 is greater than 100 µM.
As to `COc1ccc(/C=c2\sc3n(c2=O)CCN=3)cc1OC` [Compound 1i, (Z)-2-(3,4-Dimethoxybenzylidene)-5,6-dihydroimidazo[2,1-b]thiazol-3(2H)-one], in assay [1], the “Tyrosinase inhibition (%)” value was “low or no mTYR inhibitory activity” and the IC50 is greater than 100 µM.
For `COc1cc(/C=c2\sc3n(c2=O)CCN=3)cc(OC)c1OC` [Compound 1 k, (Z)-2-(3,4,5-Trimethoxybenzylidene)-5,6-dihydroimidazo[2,1-b]thiazol-3(2H)-one], the IC50 in assay [1] was greater than 100 µM.
As for `COc1cc(/C=c2\sc3n(c2=O)CCN=3)cc(OC)c1O` [Compound 1j, (Z)-2-(4-Hydroxy-3,5-dimethoxybenzylidene)-5,6-dihydroimidazo[2,1-b]thiazol-3(2H)-one], in assay [1], the “Tyrosinase inhibition (%)” value is listed as 24.43 ± 1.50% and the IC50 was greater than 100 µM.
As for `COc1cc(/C=c2\sc3n(c2=O)CCN=3)ccc1O` [Compound 1d, (Z)-2-(4-Hydroxy-3-methoxybenzylidene)-5,6-dihydroimidazo[2,1-b]thiazol-3(2H)-one], in assay [1] ([…] µM), the “Tyrosinase inhibition (%)” value is 7.83 ± 2.29%. This compound came in with an IC50 in assay [1] greater than 100 µM.
The corresponding values for `CCOc1cc(/C=c2\sc3n(c2=O)CCN=3)ccc1O` [Compound 1e, (Z)-2-(3-Ethoxy-4-hydroxybenzylidene)-5,6-dihydroimidazo[2,1-b]thiazol-3(2H)-one] are 3.90 ± 2.65% and greater than 100 µM.
With `O=c1cc(CO)occ1O` [kojic acid, reference compound], the “Tyrosinase inhibition (%)” value is listed as 30% in assay [1] ([…] µM) and 30.26 ± 0.55% in assay [1] (listed as KA, […] µM).
For the compound `O=c1/c(=C/c2ccc(O)c(O)c2)sc2n1CCN=2` [Compound 1c, (Z)-2-(3,4-Dihydroxybenzylidene)-5,6-dihydroimidazo[2,1-b]thiazol-3(2H)-one], the IC50 in assay [1] was greater than 100 µM.

Values taken from article PMC8861568, “Identification of (Z)-2-benzylidene-dihydroimidazothiazolone derivatives as tyrosinase inhibitors: Anti-melanogenic effects and in silico studies” (Computational and Structural Biotechnology Journal, 2022).
